Assay results from US20250073255A1, “USE OF FA-TYPE LIPID COMPOUNDS IN PREPARATION OF NUCLEIC ACID DELIVERY REAGENT AND RELATED PRODUCT” (BEIJING BAISHIKANG PHARMACEUTICAL TECHNOLOGY (BSJPHARMA) …, priority 2021, published 2025).

Test system: C57BL/6 male mice
Test: In vivo delivery study of lipid nucleic acid mixture (oral gavage, RT-qPCR of PGY-sRNA-26 in tissues)
Design: species or system mouse
Conditions: for overall delivery efficacy: delivering nucleic acids into each tissue and blood tested: 100 μg lipid:10 nmol PGY-sRNA-26, all tissues and blood tested; for oral delivery of single-stranded sRNA nucleic acids into mouse blood / oral delivery of single-stranded sRNA nucleic acids into mouse brain tissue / oral delivery of single-stranded sRNA nucleic acids into mouse femur / oral delivery of single-stranded sRNA nucleic acids into mouse heart tissue / oral delivery of single-stranded sRNA nucleic acids into mouse intestinal tissue / oral delivery of single-stranded sRNA nucleic acids into mouse kidney tissue / oral delivery of single-stranded sRNA nucleic acids into mouse liver tissue / oral delivery of single-stranded sRNA nucleic acids into mouse lung tissue / oral delivery of single-stranded sRNA nucleic acids into mouse pancreatic tissue / oral delivery of single-stranded sRNA nucleic acids into mouse spleen tissue / oral delivery of single-stranded sRNA nucleic acids into mouse stomach tissue: 100 μg lipid:10 nmol PGY-sRNA-26, sampled after 12 hours; for oral delivery of single-stranded sRNA nucleic acids into mouse heart tissue: vs free uptake group; for oral delivery of single-stranded sRNA nucleic acids into mouse intestinal tissue: intestine; for oral delivery of single-stranded sRNA nucleic acids into mouse pancreatic tissue: pancreas
Summary of the method: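 Lipid (100 μg) and 10 nmol 3'-methylated single-stranded PGY-sRNA-26 were heated at 90 °C for 15 min, then given by oral gavage to mice fasted 12 h. Controls were saline and free sRNA. Blood and tissues were taken at 12 h, and levels were measured by stem-loop RT-qPCR relative to U6.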

Structure (SMILES)	overall delivery efficacy: delivering nucleic acids into each tissue and blood tested	oral delivery of single-stranded sRNA nucleic acids into mouse blood	oral delivery of single-stranded sRNA nucleic acids into mouse brain tissue	oral delivery of single-stranded sRNA nucleic acids into mouse femur	oral delivery of single-stranded sRNA nucleic acids into mouse heart tissue	oral delivery of single-stranded sRNA nucleic acids into mouse intestinal tissue	oral delivery of single-stranded sRNA nucleic acids into mouse kidney tissue	oral delivery of single-stranded sRNA nucleic acids into mouse liver tissue	oral delivery of single-stranded sRNA nucleic acids into mouse lung tissue	oral delivery of single-stranded sRNA nucleic acids into mouse pancreatic tissue	oral delivery of single-stranded sRNA nucleic acids into mouse spleen tissue	oral delivery of single-stranded sRNA nucleic acids into mouse stomach tissue
CCCCC/C=C\C/C=C\C/C=C\C/C=C\CCCC(=O)NCCN(CC)CC [Lipid 810, (5Z,8Z,11Z,14Z)-N-[2-(diethylamino)ethyl]icosa-5,8,11,14-tetraenamide]	best delivery efficacy	can effectively orally deliver	can effectively orally deliver	can effectively orally deliver	can effectively orally deliver	can effectively orally deliver	can effectively orally deliver	can effectively orally deliver	can effectively orally deliver	can effectively orally deliver	can effectively orally deliver	can effectively orally deliver
CCCCC/C=C\C/C=C\C/C=C\C/C=C\CCCCCC(=O)O [Lipid 520, (7Z,10Z,13Z,16Z)-docosa-7,10,13,16-tetraenoic acid]	–	–	can effectively orally deliver	–	can effectively orally deliver	–	–	can effectively orally deliver	can effectively orally deliver	–	can effectively orally deliver	–
CCCCCCCC/C=C/CCCCCCCCO [Lipid 600, (E)-octadec-9-en-1-ol]	best delivery efficacy	can effectively orally deliver	can effectively orally deliver	can effectively orally deliver	can effectively orally deliver	can effectively orally deliver	can effectively orally deliver	can effectively orally deliver	can effectively orally deliver	–	can effectively orally deliver	can effectively orally deliver
CCCCCC1C(=O)CCC1CC(=O)O (stereo not shown) [Lipid 616, 2-(3-oxo-2-pentylcyclopentyl)-acetic acid]	–	can effectively orally deliver	can effectively orally deliver	can effectively orally deliver	can effectively orally deliver	can effectively orally deliver	–	can effectively orally deliver	can effectively orally deliver	–	can effectively orally deliver	–
C=C(C)CCOC(=O)CCCCCCCCCCCCCCCCCCCCC [Lipid 815, 3-methylbut-3-enyl docosanoate]	–	can effectively orally deliver	can effectively orally deliver	can effectively orally deliver	can effectively orally deliver	can effectively orally deliver	can effectively orally deliver	can effectively orally deliver	can effectively orally deliver	can effectively orally deliver	can effectively orally deliver	can effectively orally deliver
CCCCCCCCCCCCCCO [Lipid 635, tetradecan-1-ol]	best delivery efficacy	can effectively orally deliver	can effectively orally deliver	can effectively orally deliver	can effectively orally deliver	can effectively orally deliver	can effectively orally deliver	can effectively orally deliver	can effectively orally deliver	–	can effectively orally deliver	can effectively orally deliver
CC(=O)C1CCOC1=O (stereo not shown) [Lipid 612, 3-acetyloxolan-2-one]	–	–	–	can effectively orally deliver	–	can effectively orally deliver	–	can effectively orally deliver	–	–	–	can effectively orally deliver
CCCCCCCCCCCCCCCCCCCC(=O)O [Lipid 624, icosanoic acid]	–	–	can effectively orally deliver	can effectively orally deliver	can effectively orally deliver	can effectively orally deliver	–	can effectively orally deliver	can effectively orally deliver	–	–	can effectively orally deliver
CCCCCCCCCCCCCCCC=O [Lipid 602]	best delivery efficacy	can effectively orally deliver	can effectively orally deliver	can effectively orally deliver	can effectively orally deliver	can effectively orally deliver	can effectively orally deliver	can effectively orally deliver	can effectively orally deliver	–	can effectively orally deliver	can effectively orally deliver
CCCCCCCCCCCCCCC=O [Lipid 574]	–	can effectively orally deliver	can effectively orally deliver	can effectively orally deliver	can effectively orally deliver	–	can effectively orally deliver	can effectively orally deliver	–	–	can effectively orally deliver	can effectively orally deliver
CCCCCCCCCCCC(N)=O [Lipid 611, dodecanamide]	–	–	–	can effectively orally deliver	–	–	–	–	–	–	can effectively orally deliver	can effectively orally deliver
CCCCC/C=C\C/C=C\C/C=C\C/C=C\CCCC(=O)O [Lipid 620, (5Z,8Z,11Z,14Z)-icosa-5,8,11,14-tetraenoic acid]	–	–	can effectively orally deliver	can effectively orally deliver	can effectively orally deliver	can effectively orally deliver	can effectively orally deliver	can effectively orally deliver	can effectively orally deliver	–	can effectively orally deliver	can effectively orally deliver
